pIC50: −log10 of the molar value. Values joined by “and” are separate entries in the source; they are usually repeats but may differ in a detail not shown here. Identical values can stand only once.
How the values were obtained:
[1] = system: Type 3 Phosphodiesterase; test: PDE inhibition, Type 3 phosphodiesterase, cardiac muscle; format: biochemical; settings: 1 × 10^-4 M
Protocol: (§1) Phosphodiesterase activity was measured as described previously (Weishaar, P. E., Quade, M., Boyd, D., Schenden, J., Mark, S. S., Kaplan, H. R., Drug Devel. Res., 3:517-534, 1983), in a reaction medium containing 40 mM Tris-HCl (pH 8.0), 5 mM MgCl and 4 mM 2-mercaptoethanol. Unless otherwise noted, the concentration of substrate (^3 H-cyclic AMP or ^3 H-cyclic GMP) was 1.0 μM. All agents examined were dissolved in dimethyl sulfoxide (DMSO). Final concentration of the reaction medium was either 2.5% (cardiac and platelet studies) or 1.25% (smooth muscle studies). This concentration of DMSO produced an approximately 10% inhibition of enzyme activity. […] Three to four such concentration-response curves were generated for each agent, generally using different enzyme preparations for each concentration-response.

[2] = system: Type 1 Phosphodiesterase; test: PDE inhibition, Type 1 phosphodiesterase, cardiac muscle; format: biochemical; settings: 1 × 10^-4 M
Protocol: as §1

[3] = system: histamine; test: Bronchodilator test (BCA), histamine spasmogen, guinea pigs; format: in vivo, Hartley Guinea Pigs; set-up: key: Active; settings: 50 mg/kg
From the text: The compounds of this invention may be determined to have antiallergy activity by a standard laboratory means employing the bronchodilator test (BCA) readily accepted as a standard for antiallergy activity, which is described in Siegmund, H. O., et al (J. Pharmacol. and Exptl., 90:254, 1949 and Herxheimer, H., J. Physiol., 117: 252-255, 1952). Thus, antiallergy activity was found for compounds of this invention by this BCA test using Hartley Guinea Pigs by the procedures as described below.
Naive (BCA) pigs are exposed to spasmogen for ten minutes by means of a De Vilbiss number 40 nebulizer positioned at the back of a closed, six unit plexiglas chamger (19×12.5×9"). Air flow is adjusted to give a pressure of 10 lbs/in; six animals per treatment are averaged, and the mean value for compound treated animals is compared to that for animals treated with vehicle. […]
The spasmogen may be acetylcholine chloride (0.3%), histamine (0.1%), methacholine chloride (Mecholyl) (0.1%) or serotonin creatinine sulfate. Each nebulizer dispenses 0.2 cc/minute.

[4] = target: T1, Type 2 Phosphodiesterase (Cavia porcellus, UniProt A0A286XUV5); test: PDE inhibition, Type 2 phosphodiesterase, cardiac muscle; format: biochemical; set-up: inhibition: dose or concentration left out as unconfirmed; settings: for inhibition at 100 µM: 1 × 10^-4 M, read-out: % Inhibition of 3H-cGMP Hydrolysis, Type 2 Phosphodiesterase; for inhibition: read-out: % Inhibition of 3H-cAMP Hydrolysis, Type 2 Phosphodiesterase
T1 construct: from tissue
T1 sequence (A0A286XUV5 22-936): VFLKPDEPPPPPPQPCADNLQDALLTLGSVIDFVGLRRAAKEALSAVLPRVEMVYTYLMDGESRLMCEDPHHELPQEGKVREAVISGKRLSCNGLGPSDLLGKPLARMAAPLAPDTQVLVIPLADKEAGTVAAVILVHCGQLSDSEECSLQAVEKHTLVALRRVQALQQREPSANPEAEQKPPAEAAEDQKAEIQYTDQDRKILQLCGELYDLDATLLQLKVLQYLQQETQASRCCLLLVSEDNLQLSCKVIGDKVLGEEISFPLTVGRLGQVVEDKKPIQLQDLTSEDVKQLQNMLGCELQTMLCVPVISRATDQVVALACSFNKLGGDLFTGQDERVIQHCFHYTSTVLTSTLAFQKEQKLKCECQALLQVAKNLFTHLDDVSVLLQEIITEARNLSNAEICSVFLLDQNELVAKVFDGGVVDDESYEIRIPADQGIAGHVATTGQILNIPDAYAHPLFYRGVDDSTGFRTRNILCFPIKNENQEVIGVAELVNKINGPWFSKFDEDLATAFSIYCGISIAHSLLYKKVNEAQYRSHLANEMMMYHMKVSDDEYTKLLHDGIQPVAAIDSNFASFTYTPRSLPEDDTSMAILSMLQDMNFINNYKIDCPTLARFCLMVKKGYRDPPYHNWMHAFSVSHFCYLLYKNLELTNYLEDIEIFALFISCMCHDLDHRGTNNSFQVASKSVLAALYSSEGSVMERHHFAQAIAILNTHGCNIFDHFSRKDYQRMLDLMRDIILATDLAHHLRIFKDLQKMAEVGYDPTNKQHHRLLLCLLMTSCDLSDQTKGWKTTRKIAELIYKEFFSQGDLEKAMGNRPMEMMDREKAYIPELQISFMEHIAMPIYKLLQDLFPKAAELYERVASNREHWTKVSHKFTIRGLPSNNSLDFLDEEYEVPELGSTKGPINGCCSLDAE
Protocol: as §1

[5] = target: T2, adenosine receptors (designated A1) (Rattus norvegicus, UniProt P25099); test: Adenosine receptor binding - A1 receptor affinity (RBA1), [3H]-CHA displacement, rat whole brain minus cerebellum and brainstem membranes; set-up: species or system rat (male Long Evans); settings: 1.0 nM [3H]-CHA, 25° C., pH 7.7; repeat tests (Test 1-4) one line each; read-out: RBA-1 (IC50, adenosine A1 affinity)
T2 construct: Whole brain minus cerebellum and brainstem from male Long Evans rats (150-200 g); from tissue; host or cells: whole brain minus cerebellum and brainstem, male Long Evans rats, membranes
T2 sequence (P25099 1-326): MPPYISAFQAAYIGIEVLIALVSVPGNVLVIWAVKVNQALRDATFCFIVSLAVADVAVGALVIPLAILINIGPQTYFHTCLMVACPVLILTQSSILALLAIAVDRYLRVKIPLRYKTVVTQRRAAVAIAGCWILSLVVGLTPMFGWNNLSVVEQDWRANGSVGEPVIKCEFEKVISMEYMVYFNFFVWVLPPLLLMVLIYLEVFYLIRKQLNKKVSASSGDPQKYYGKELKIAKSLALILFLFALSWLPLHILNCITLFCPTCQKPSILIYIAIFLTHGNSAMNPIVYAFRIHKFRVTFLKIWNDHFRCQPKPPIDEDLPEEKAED
Protocol: ADENOSINE RECEPTOR BINDING-A1 RECEPTOR AFFINITY (RBA1)
Whole brain minus cerebellum and brainstem from male Long Evans rats (150-200 g) was homogenized in 30 volumes of ice-cold 0.05M Tris-HCl buffer pH 7.7 using a Brinkman Polytron PT-10, (setting number 6 for 20 seconds) and centrifuged for ten minutes at 20,000×g (Sorvall RC-2), 4° C. The supernatant was discarded, and the pellet was resuspended and centrifuged as before. The pellet was resuspended in 20 ml Tris-HCl buffer containing two International Units/ml of adenosine deaminase (Sigma type III from calf intestinal mucosa), incubated at 37° C. for 30 minutes, then subsequently at 0° C. for ten minutes. The homogenate was again centrifuged, and the final pellet was resuspended in ice-cold 0.05M Tris-HCl buffer pH 7.7 to a concentration of 20 mg/ml original wet tissue weight and used immediately.
Tissue homogenate (10 mg/ml) was incubated in 0.05M Tris-HCl buffer pH 7.7 containing 1.0 nM [^3 H]-N^6 -cyclohexyladenosine (^3 H]-CHA) with or without test agents in triplicate for one hour at 25° C. Incubation volume was 2 ml. Unbound [^3 H]-CHA was separated by rapid filtration under reduced pressure through Whatman glass fiber (GF/B) filters. The filters were rinsed three times with 5 ml of ice cold 0.05M Tris-HCl buffer pH 7.7. The radio-labeled ligand retained on the filter was measured by liquid scintillation spectrophotometry after shaking the filters for one hour or longer on a mechanical shaker in 10 ml of Beckman Ready-Solv HP scintillation cocktail.
Nonspecific binding was defined as the binding which occurred in the presence of 1 mM theophylline. The concentration of test agent which inhibited 50% of the specific binding (IC50) was determined by nonlinear computer curve fit. The Scatchard plot was calculated by linear regression of the line obtained by plotting the amount of radioligand bound ([…]) versus [bound radioligand/free radioligand].Since the amount of radioligand bound was a small fraction of the total amount added, free radioligand was defined as the concentration (nM) of radioligand added to the incubation mixture. The Hill coefficient was calculated by linear regression of the line obtained by plotting the log of the bound radioligand vs the log of the [bound radioligand/(Bmax -bound radioligand)]. The maximal number of binding sites (Bmax) was calculated from the Scatchard plot.

SMILES	% Inhibition of 3H-cAMP Hydrolysis, Type 3 Phosphodiesterase [1]	% Inhibition of 3H-cAMP Hydrolysis, Type 1 Phosphodiesterase [2]	% Inhibition of 3H-cGMP Hydrolysis, Type 1 Phosphodiesterase [2]	BCA Results, Ratings [3]	inhibition at 100 µM [4]	inhibition [4]	pIC50 [5]
CCn1nc(C)c2[nH]c(=O)[nH]c(=O)c21 [Example 3, 1-Ethyl-3-methyl-1H-pyrazolo[4,3-d]pyrimidine-5,7(4H,6H)dione]	A (56-100% inhibition at 1 × 10^-5 M)	B (36-55% inhibition at 1 × 10^-5 M)	B (36-55% inhibition at 1 × 10^-5 M)	A	36 to 55%	36 to 55%	5.23
CCn1c(=O)[nH]c2c(C)nn(CC)c2c1=O [Example 4, 1-Ethyl-3-methyl-6ethyl-1H-pyrazolo[4,3-d]pyrimidine-5,7-[4H,6H]dione]	A (56-100% inhibition at 1 × 10^-5 M)	A (56-100% inhibition at 1 × 10^-5 M)	A (56-100% inhibition at 1 × 10^-5 M)	A	56 to 100%	56 to 100%	5.98 and 5.82
CCCn1c(=O)[nH]c2c(C)nn(CC)c2c1=O [Example 5, 1H-1-Ethyl-3-methyl-6-propyl-pyrazolo[4,3-d]pyrimidine-5,7-[4H,6H]dione]	B (36-55% inhibition at 1 × 10^-5 M)	A (56-100% inhibition at 1 × 10^-5 M)	A (56-100% inhibition at 1 × 10^-5 M)	A	56 to 100%	56 to 100%	6.34 and 6.00 and 6.42 and 6.40
CCn1nc(C)c2[nH]c(=O)n(C)c(=O)c21 [Example 6, 1-Ethyl-3,6-dimethyl-1H-pyrazolo-[4,3-d]pyrimidine-5,7-[4H,6H]dione]	A (56-100% inhibition at 1 × 10^-5 M)	A (56-100% inhibition at 1 × 10^-5 M)	A (56-100% inhibition at 1 × 10^-5 M)	A	56 to 100%	36 to 55%	5.60
Cc1nn(C)c2c(=O)n(C)c(=O)n(C)c12 [Example 7, 1,3,4,6-tetramethyl-1H-pyrazolo[4,3-d]pyrimidine-5,7-[4H,6H]dione]	C (21-35% inhibition at 1 × 10^-5 M)	C (21-35% inhibition at 1 × 10^-5 M)	N (0-20% inhibition at 1 × 10^-5 M)	A	36 to 55%	36 to 55%	–
CCn1c(=O)c2c(c(C)nn2C)n(CC)c1=O [Example 8, 4,6-Diethyl-1,3-dimethyl-1H-pyrazolo[4,3-d]pyrimidine-5,7-[4H,6H]dione]	A (56-100% inhibition at 1 × 10^-5 M)	B (36-55% inhibition at 1 × 10^-5 M)	B (36-55% inhibition at 1 × 10^-5 M)	A	56 to 100%	56 to 100%	–
CCCn1c(=O)c2c(c(C)nn2C)n(CCC)c1=O [Example 9, 1,3-dimethyl-4,6-dipropyl-1H-pyra-3-zolo[4,3-d]pyrimidine-5,7-[4H,6H]dione]	A (56-100% inhibition at 1 × 10^-5 M)	A (56-100% inhibition at 1 × 10^-5 M)	A (56-100% inhibition at 1 × 10^-5 M)	–	56 to 100%	56 to 100%	–

— US4663326A, “Pyrazolo[4,3-d]pyrimidine-5,7-(4H,6H)dione or -5-thione-7-one analogs” (Warner-Lambert Company, priority 1985, dated 1987)
